Results: ChEMBL document CHEMBL1201862, “PubChem BioAssay data set” (2004)
One block for each molecule: values may come before it. Calls of active or inactive are those of the source.

Experiments:
Coagulation factor XII = molecular target: T1, Coagulation factor XII (Homo sapiens, UniProt P00748); type: functional;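 also: activated factor XIIa alpha cleaving a fluorogenic AMC peptide substrate; inhibitor potency from loss of enzyme activity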
T1 sequence (P00748 whole entry): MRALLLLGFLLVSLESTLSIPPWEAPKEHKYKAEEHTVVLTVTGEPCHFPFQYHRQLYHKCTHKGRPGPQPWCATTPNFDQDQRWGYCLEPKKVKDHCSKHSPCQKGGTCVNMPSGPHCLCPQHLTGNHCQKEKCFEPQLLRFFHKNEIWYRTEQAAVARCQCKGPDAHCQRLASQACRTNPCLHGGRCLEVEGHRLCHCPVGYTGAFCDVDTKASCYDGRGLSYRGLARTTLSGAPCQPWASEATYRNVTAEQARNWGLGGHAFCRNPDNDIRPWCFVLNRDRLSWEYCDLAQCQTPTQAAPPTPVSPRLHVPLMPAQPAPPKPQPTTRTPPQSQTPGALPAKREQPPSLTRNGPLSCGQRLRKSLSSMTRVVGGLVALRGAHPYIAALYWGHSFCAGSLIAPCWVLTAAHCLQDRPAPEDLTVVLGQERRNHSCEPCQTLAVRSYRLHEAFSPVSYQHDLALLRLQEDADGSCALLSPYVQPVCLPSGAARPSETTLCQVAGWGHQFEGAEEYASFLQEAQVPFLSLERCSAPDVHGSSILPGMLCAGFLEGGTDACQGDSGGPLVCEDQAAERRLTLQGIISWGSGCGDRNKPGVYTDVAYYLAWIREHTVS

Escherichia coli = test: microbe, parasite or virus in culture
[1] = NIH3T3 cell viability loss – ATP luminescence, mouse fibroblasts, counter-screen, dose response (AID 2010); type: functional, cell-based;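 also: cells exposed to compound for about 90 hours before reading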
[2] = molecular target: T2, Mannose-6-phosphate isomerase (Homo sapiens, UniProt P34949); test: MPI inhibition at elevated mannose 6-phosphate – biochemical, fluorescence intensity, high mannose 6-phosphate, primary screen (AID 1220)
T2 sequence (P34949 whole entry): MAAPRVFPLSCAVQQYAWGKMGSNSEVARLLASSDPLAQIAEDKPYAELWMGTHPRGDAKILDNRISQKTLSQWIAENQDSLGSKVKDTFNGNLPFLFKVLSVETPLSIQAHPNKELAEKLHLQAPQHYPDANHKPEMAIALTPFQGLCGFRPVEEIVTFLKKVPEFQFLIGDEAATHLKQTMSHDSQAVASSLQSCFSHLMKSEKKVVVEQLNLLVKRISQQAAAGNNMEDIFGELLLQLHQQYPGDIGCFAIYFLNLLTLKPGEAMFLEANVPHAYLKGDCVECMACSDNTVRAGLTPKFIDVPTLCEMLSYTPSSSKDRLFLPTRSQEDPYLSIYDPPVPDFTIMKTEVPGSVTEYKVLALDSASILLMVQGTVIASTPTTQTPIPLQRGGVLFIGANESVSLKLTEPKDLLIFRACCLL

[3] = Trypanosoma cruzi growth suppression in host cells – NIH3T3 host cells, beta-gal luminescence, confirmation (AID 2044); type: functional, cell-based;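 also: intracellular parasites grown in NIH/3T3 mouse fibroblasts as host cells; luminescent beta-galactosidase reporter signal from transgenic T. cruzi replicating inside host cells; inhibitors lower the luminescence signal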
Hexokinase HKDC1 = molecular target: T3, Hexokinase HKDC1 (Homo sapiens, UniProt Q2TB90); test: inhibition of HKDC1 glucose phosphorylation – biochemical, W721R variant, dose response (AID 504729); type: functional
T3 sequence (Q2TB90 whole entry): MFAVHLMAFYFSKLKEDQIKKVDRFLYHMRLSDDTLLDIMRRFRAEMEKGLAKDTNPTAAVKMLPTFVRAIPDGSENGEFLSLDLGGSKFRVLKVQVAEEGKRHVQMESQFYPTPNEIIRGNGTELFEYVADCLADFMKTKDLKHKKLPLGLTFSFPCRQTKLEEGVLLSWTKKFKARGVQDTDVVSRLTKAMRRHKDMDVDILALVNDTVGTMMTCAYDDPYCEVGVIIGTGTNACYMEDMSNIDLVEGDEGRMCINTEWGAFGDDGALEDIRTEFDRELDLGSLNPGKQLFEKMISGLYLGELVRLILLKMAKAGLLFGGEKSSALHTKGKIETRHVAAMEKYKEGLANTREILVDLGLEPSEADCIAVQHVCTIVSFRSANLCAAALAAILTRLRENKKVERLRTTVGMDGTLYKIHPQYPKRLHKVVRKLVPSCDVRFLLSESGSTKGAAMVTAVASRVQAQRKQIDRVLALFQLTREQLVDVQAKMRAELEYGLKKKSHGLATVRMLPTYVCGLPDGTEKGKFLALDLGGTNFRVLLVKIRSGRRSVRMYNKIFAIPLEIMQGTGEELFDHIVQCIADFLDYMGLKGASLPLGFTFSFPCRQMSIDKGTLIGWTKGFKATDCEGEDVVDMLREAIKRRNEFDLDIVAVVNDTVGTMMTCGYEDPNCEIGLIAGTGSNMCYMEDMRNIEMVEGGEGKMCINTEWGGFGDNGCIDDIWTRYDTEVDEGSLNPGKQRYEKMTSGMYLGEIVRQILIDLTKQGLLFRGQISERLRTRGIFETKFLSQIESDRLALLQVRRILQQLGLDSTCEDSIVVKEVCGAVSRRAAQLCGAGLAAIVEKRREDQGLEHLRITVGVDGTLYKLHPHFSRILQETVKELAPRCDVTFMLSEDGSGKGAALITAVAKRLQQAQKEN

[4] = molecular target: T4, Voltage-gated N-type calcium channel alpha-1B subunit/Amyloid beta A4 precursor protein-binding family A member 1 (Homo sapiens, UniProt Q00975+Q02410); type: protein assay
T4 sequence (Q00975 whole entry): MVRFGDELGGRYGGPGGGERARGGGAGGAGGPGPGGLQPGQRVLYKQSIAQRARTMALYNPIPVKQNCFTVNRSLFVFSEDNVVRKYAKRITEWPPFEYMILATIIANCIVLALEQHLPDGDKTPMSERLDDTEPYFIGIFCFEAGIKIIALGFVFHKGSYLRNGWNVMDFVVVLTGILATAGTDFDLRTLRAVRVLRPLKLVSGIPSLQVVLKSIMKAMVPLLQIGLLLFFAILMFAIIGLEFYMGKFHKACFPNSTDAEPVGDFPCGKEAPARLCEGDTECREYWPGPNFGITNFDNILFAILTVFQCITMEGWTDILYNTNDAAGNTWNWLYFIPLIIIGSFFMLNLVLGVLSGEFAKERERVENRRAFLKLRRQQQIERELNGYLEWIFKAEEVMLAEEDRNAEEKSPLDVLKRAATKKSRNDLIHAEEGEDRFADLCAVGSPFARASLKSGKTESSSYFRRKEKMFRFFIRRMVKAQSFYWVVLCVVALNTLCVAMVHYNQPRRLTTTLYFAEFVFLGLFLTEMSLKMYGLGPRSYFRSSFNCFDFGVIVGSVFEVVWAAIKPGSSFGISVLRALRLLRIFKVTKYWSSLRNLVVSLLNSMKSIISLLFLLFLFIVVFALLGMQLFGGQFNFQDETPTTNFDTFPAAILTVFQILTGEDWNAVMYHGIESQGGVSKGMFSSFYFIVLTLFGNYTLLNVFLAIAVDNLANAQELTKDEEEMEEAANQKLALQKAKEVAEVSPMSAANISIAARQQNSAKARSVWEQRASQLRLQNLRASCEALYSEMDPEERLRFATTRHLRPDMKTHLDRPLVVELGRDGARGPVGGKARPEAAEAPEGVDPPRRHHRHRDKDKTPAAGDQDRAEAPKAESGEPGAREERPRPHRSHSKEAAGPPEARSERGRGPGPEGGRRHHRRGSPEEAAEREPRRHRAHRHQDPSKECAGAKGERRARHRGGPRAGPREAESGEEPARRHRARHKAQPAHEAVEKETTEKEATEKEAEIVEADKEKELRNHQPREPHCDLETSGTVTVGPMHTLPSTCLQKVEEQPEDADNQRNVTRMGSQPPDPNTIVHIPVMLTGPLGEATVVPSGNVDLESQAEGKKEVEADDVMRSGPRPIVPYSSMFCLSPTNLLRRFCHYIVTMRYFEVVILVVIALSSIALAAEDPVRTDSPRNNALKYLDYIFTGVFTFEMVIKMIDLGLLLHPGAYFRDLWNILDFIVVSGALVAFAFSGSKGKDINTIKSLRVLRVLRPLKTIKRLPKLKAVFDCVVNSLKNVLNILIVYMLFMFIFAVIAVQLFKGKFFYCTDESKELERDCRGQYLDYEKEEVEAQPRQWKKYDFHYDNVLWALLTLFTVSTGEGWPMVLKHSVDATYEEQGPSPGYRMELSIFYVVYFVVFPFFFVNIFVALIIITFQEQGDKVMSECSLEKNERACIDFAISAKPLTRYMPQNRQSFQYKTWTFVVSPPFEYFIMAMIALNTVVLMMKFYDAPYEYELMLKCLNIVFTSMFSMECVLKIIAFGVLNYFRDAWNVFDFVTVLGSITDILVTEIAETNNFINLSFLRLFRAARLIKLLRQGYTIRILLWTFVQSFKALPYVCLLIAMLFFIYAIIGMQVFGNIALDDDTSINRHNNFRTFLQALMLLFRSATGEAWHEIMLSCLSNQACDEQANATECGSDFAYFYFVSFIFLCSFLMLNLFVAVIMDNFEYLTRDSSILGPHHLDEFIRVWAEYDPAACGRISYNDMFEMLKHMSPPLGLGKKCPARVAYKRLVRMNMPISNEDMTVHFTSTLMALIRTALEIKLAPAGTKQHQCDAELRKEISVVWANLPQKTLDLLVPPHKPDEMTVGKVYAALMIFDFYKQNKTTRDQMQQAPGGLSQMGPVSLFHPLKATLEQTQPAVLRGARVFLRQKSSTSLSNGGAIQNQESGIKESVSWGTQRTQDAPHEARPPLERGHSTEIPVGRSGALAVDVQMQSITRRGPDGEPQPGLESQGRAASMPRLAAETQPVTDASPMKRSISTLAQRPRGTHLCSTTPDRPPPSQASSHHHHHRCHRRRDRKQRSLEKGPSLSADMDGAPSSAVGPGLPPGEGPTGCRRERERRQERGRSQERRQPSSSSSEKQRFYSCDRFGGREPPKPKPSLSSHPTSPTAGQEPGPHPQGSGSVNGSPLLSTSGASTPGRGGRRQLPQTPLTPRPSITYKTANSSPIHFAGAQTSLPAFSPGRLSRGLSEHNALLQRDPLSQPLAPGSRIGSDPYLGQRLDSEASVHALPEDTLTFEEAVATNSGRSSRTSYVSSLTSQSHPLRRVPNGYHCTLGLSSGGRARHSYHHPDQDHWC
T4 sequence (Q02410 whole entry): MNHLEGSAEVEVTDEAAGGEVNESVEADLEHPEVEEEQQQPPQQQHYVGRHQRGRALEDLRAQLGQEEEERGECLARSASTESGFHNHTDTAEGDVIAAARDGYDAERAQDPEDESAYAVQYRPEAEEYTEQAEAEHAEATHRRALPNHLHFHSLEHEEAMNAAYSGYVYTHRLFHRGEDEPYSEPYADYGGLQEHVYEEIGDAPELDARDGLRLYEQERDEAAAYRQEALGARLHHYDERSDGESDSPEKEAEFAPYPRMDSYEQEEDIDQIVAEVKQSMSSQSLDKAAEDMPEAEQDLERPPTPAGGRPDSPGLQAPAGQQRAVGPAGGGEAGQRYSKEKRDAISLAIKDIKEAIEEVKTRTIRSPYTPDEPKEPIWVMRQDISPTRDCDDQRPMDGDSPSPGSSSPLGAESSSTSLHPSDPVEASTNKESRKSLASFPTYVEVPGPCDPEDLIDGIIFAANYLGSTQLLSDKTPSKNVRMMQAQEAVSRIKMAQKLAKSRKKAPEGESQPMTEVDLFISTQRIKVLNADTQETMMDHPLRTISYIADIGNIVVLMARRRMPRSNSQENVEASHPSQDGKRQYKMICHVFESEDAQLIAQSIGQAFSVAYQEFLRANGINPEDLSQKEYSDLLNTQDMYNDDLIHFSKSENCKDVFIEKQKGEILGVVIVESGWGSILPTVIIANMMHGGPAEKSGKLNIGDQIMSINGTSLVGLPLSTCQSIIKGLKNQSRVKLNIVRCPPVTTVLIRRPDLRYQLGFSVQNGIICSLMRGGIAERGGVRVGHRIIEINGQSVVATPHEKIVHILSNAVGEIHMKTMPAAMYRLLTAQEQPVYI

[5] = molecular target: Induced myeloid leukemia cell differentiation protein Mcl-1 (Homo sapiens, UniProt Q07820); type: functional
Induced myeloid leukemia cell differentiation protein Mcl-1, sequence (Q07820 whole entry): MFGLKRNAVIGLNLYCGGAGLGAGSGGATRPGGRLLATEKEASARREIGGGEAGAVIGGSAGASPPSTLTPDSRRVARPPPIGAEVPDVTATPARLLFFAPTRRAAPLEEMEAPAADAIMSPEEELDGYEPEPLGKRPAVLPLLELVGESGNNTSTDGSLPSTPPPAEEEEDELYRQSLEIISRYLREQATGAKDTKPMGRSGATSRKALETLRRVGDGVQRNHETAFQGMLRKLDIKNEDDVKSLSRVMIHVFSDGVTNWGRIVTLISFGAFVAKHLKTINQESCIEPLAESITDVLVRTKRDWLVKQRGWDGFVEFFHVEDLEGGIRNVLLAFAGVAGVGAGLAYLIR

[6] = molecular target: T4, Voltage-gated N-type calcium channel alpha-1B subunit/Amyloid beta A4 precursor protein-binding family A member 1; type: protein assay; remark: listed apart in the source
Genome polyprotein = Genome polyprotein (dengue virus type 2, UniProt P29990); test: flavivirus cap methylation enzyme inhibition – biochemical, confirmation dose response, primary screen (AID 588689); type: functional
Genome polyprotein, sequence (P29990 2492-3391 limits assumed): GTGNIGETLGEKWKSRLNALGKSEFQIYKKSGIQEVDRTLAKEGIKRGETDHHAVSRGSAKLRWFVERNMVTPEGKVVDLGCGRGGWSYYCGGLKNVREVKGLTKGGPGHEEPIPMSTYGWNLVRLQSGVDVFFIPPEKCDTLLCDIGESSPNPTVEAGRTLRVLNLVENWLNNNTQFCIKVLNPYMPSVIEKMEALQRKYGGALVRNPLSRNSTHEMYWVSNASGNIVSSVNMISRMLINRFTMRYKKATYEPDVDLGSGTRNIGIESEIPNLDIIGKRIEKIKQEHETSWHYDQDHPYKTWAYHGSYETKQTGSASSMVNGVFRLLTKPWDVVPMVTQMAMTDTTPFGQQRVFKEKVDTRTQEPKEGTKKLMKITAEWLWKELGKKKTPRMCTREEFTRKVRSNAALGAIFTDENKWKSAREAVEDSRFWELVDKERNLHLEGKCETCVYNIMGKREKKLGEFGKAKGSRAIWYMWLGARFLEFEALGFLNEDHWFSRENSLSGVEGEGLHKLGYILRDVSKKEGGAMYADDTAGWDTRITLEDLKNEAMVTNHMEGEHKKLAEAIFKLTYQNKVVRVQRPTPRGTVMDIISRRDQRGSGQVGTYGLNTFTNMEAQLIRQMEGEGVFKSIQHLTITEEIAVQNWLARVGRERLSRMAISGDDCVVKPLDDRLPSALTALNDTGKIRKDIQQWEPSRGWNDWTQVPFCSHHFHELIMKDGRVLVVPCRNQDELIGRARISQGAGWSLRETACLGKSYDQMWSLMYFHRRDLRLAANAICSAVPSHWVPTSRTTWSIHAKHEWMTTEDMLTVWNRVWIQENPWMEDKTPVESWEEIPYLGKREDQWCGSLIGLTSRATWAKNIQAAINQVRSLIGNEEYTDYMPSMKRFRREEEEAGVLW

[7] = molecular target: T5, Carboxy-terminal domain RNA polymerase II polypeptide A small phosphatase 1 (Homo sapiens, UniProt Q9GZU7); test: CTDSP1 inhibitors, concentration-response, biochemical, absorbance readout, ultra-high-throughput screen actives (AID 540297); type: functional
T5 sequence (Q9GZU7 whole entry): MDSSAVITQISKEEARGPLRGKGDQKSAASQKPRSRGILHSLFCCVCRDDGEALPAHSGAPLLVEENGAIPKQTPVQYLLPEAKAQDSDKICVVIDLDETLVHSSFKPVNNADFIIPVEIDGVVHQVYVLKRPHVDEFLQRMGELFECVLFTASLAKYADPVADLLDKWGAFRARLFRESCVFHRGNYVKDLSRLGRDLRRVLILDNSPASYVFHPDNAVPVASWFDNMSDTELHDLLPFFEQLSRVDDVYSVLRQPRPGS

Hexokinase = molecular target: T6, Hexokinase (Trypanosoma brucei, UniProt Q38C41); test: Confirmation assay for inhibitors of Trypanosoma brucei hexokinase 1-Analogue-first series. [Related pubchem assays (depositor defined):AID1430, AID1632, AID2516, AID2560, AID2579, AID2600, AID449725, AID492951]; type: functional
T6 sequence (Q38C41 whole entry): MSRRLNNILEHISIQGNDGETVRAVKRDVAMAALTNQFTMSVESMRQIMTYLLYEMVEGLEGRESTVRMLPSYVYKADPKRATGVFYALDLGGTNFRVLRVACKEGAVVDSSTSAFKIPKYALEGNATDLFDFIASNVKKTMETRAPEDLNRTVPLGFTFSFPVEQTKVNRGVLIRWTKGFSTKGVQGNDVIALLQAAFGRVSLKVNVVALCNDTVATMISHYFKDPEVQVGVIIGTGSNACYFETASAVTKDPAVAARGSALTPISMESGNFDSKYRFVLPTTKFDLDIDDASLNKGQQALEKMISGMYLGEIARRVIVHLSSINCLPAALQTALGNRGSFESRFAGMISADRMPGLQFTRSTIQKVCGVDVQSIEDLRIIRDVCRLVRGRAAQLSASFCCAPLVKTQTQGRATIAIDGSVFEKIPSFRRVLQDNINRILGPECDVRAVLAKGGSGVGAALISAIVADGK

IC50 (Coagulation factor XII): > 50 µM (inactive)
Structure (SMILES): O=C(O)c1ccc(NCc2nc3ccccc3n2Cc2ccccc2)cc1

Structure (SMILES): COc1cccc(-c2cc(O)c3cc(NC(C)=O)ccc3n2)c1
AC50 (Escherichia coli): 28.2 µM (active)

Structure (SMILES): CCO/C(O)=C(/C)C1=NC(C)(C)Cc2ccccc21
EC50 [1]: > 60 µM (not active)
IC50 [2]: 37.9 µM (active)
IC50 (Coagulation factor XII): > 50 µM (inactive)
EC50 [3]: 10.7 µM (active)

IC50 (Hexokinase HKDC1): 41.1 µM (inactive)
IC50 [4]: > 56.8 µM (not active)
IC50 [5]: 2.95 µM (active)
IC50 [6]: > 50 µM (inactive)
IC50 (Genome polyprotein): 61.9 µM (active)
IC50 [7]: 5.99 µM (active)
Structure (SMILES): CCC1=NN2C(=N)/C(=C\c3ccc(OCc4cc(=O)n5nc(CC)sc5n4)c(OC)c3)C(=O)N=C2S1

Structure (SMILES): O=C(Nc1cc(Cl)ccc1C(=O)O)c1ccc2c(c1)CCC2
IC50 (Hexokinase): 4.83 µM (active)

Structure (SMILES): CC(C)c1ccc(OCC(=O)N2CCN(C)CC2)c(Br)c1
AC50 (Escherichia coli): 57.9 µM (active)
